In ChEMBL document CHEMBL1201862, “PubChem BioAssay data set” (2004):
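In this assay, cells in 96-well plates receive the compound at five concentrations for 48 hours. Endpoints are linearly interpolated between the surrounding concentrations. The concentration for 50% growth inhibition is given as GI50.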 Calls of active or inactive are those of the source. Rule as the data show it: active = GI50 up to about 1.1 µM and inactive = higher.

Key:
Assay in all cases: NCI-60 cell line screen, 48 h
MCF7 = test system: MCF7
KM12 = test system: KM12
786-0 = test system: 786-0
HT-29 = test system: HT-29
RPMI-8226 = test system: RPMI-8226
K562 = test system: K562
MDA-MB-435 = test system: MDA-MB-435
MDA-MB-231 = test system: MDA-MB-231
HCC 2998 = test system: HCC 2998
ACHN = test system: ACHN
UO-31 = test system: UO-31
NCI-H522 = test system: NCI-H522
SNB-75 = test system: SNB-75
SNB-19 = test system: SNB-19
TK-10 = test system: TK-10
DU-145 = test system: DU-145
HCT-116 = test system: HCT-116
OVCAR-4 = test system: OVCAR-4
PC-3 = test system: PC-3
RXF 393 = test system: RXF 393
OVCAR-8 = test system: OVCAR-8
OVCAR-5 = test system: OVCAR-5
SK-MEL-5 = test system: SK-MEL-5
EKVX = test system: EKVX
CCRF-CEM = test system: CCRF-CEM
SK-OV-3 = test system: SK-OV-3
MDA-N = test system: MDA-N
HOP-92 = test system: HOP-92
OVCAR-3 = test system: OVCAR-3
T47D = test system: T47D
UACC-257 = test system: UACC-257
NCI-H460 = test system: NCI-H460
NCI-H23 = test system: NCI-H23
HCT-15 = test system: HCT-15
MOLT-4 = test system: MOLT-4
M14 = test system: M14
NCI/ADR-RES = test system: NCI/ADR-RES
SF-295 = test system: SF-295
HOP-62 = test system: HOP-62
SF-268 = test system: SF-268
SK-MEL-2 = test system: SK-MEL-2
U-251 = test system: U-251
SK-MEL-28 = test system: SK-MEL-28
IGROV-1 = test system: IGROV-1
BT-549 = test system: BT-549
COLO 205 = test system: COLO 205
A549 = test system: A549
Hs-578T = test system: Hs-578T
Malme-3M = test system: Malme-3M
UACC-62 = test system: UACC-62
CAKI-1 = test system: CAKI-1
A498 = test system: A498

COC(=O)C1CCC(=S)N1C(=O)c1ccccc1 (configuration not stated)
GI50 (MCF7): > 100 µM (inactive) | GI50 (KM12): > 100 µM (inactive) | GI50 (786-0): > 100 µM (inactive) | GI50 (HT-29): > 100 µM (inactive) | GI50 (RPMI-8226): > 100 µM (inactive) | GI50 (K562): 4.94 µM (inactive) | GI50 (MDA-MB-435): > 100 µM (inactive) | GI50 (MDA-MB-231): > 100 µM (inactive) | GI50 (HCC 2998): 77.6 µM (inactive) | GI50 (ACHN): > 100 µM (inactive) | GI50 (UO-31): > 100 µM (inactive) | GI50 (NCI-H522): > 100 µM (inactive) | GI50 (SNB-75): > 100 µM (inactive) | GI50 (SNB-19): > 100 µM (inactive) | GI50 (TK-10): > 100 µM (inactive) | GI50 (DU-145): > 100 µM (inactive) | GI50 (HCT-116): > 100 µM (inactive) | GI50 (OVCAR-4): > 100 µM (inactive) | GI50 (PC-3): > 100 µM (inactive) | GI50 (RXF 393): > 100 µM (inactive) | GI50 (OVCAR-8): > 100 µM (inactive) | GI50 (OVCAR-5): > 100 µM (inactive) | GI50 (SK-MEL-5): > 100 µM (inactive) | GI50 (EKVX): 87.3 µM (inactive) | GI50 (CCRF-CEM): > 100 µM (inactive) | GI50 (SK-OV-3): > 100 µM (inactive) | GI50 (MDA-N): > 100 µM (inactive) | GI50 (HOP-92): > 100 µM (inactive) | GI50 (OVCAR-3): > 100 µM (inactive) | GI50 (T47D): > 100 µM (inactive) | GI50 (UACC-257): > 100 µM (inactive) | GI50 (NCI-H460): 40.6 µM (inactive) | GI50 (NCI-H23): > 100 µM (inactive) | GI50 (HCT-15): > 100 µM | GI50 (MOLT-4): 26.5 µM (inactive) | GI50 (M14): > 100 µM (inactive) | GI50 (NCI/ADR-RES): > 100 µM (inactive) | GI50 (SF-295): > 100 µM (inactive) | GI50 (HOP-62): > 100 µM (inactive) | GI50 (SF-268): > 100 µM (inactive) | GI50 (SK-MEL-2): > 100 µM (inactive) | GI50 (U-251): > 100 µM (inactive) | GI50 (SK-MEL-28): > 100 µM (inactive) | GI50 (IGROV-1): > 100 µM (inactive) | GI50 (BT-549): > 100 µM (inactive) | GI50 (COLO 205): > 100 µM (inactive) | GI50 (A549): > 100 µM (inactive) | GI50 (Hs-578T): > 100 µM (inactive) | GI50 (Malme-3M): > 100 µM (inactive) | GI50 (UACC-62): > 100 µM (inactive) | GI50 (CAKI-1): > 100 µM (inactive) | GI50 (A498): > 100 µM (inactive)
